From publication PMC7731283, “Synthesis and Biological Evaluation of Halogenated E-Stilbenols as Promising Antiaging Agents” (Molecules, 2020)

Assays:
[1] = Log P by RP-HPLC (HPLC-PDA), extrapolation of Log k to 0% MeOH; type: physicochemical; conditions: for Log k / Retention factor (k): RP-C18
Procedure: For each compound, the retention time was reported at different percentages of mobile phases (Table 1). See Materials and Methods and Supplementary Materials for the detailed procedures. (1) k= tR− tM/tM where tR is the retention time of the sample and tM is the retention time of blank (methanol).
Stock solutions of each compound were prepared as follow: 1 mg of the synthesized compound and RSV (control) was weighted and dissolved in 1 mL of dimethyl sulfoxide (DMSO). The working solutions were prepared in methanol at 100 µg/mL. 20 µL of working solutions was injected in HPLC system without pre-treatment.
The HPLC analyses for all new compounds were carried out in isocratic conditions with Milli-Q Water (18.2 MΩ-cm at 25 °C) as solvent A and MeOH as solvent B in different percentages reported in […]. RP-C18 stationary phase (LiChrosorb C18, 150 × 4.6 mm, 5 µm) column was used. All compounds were detected at their maximum wavelength: 322 nm for 1, 301 nm for 2, 324 nm for 3, 324 nm for 4, 373 nm for 5, 322 nm for 6, 320 nm for 7, whereas RSV was detected at 306 nm. The total run time was kept until sample elution.

[2] = tested on: C2C12 cells; test: MTT assay, cell vitality/proliferation; type: cell-based, mouse
Procedure: The oxidative stress plays one of the key roles in cell’s life path. For these reasons, to evaluate the possible cytotoxic effects of compounds 1–7 and their effect on the cell proliferative capacity and to define a suitable concentration range, all the new synthesized compounds 1–7 were evaluated for their cytotoxic activity at three different concentrations (1, 10 and 100 μM) via standard MTT assay, using C2C12 cell line (Figure 3). Due to well-known antioxidant and neurodegenerative senescence prevention abilities in addition to enhancing the beneficial effects of physical exercise on the skeletal muscles of the elderly, RSV was used as reference compound [54, 55]. […] For this reason, we performed the same assay also at 48 h for the compounds 5, 6 and RSV (Figure 4).
Prompted by the results obtained for compound 6 as a scavenge ROS due the presence of halogenated groups, we used the widely C2C12 mouse cells as a myogenic model, to study its antioxidant effects following both the evaluation of superoxide anion radical concentration and chemical insults, such as from H2O2. C2C12 cells (CRL 1772; American Type Culture Collection, Rockville, MD, USA) were grown in Dulbecco’s modified Eagle’s medium (DMEM; Euroclone, Pero, Italy) containing 20% foetal bovine serum (Euroclone), […] L-glutamine (Euroclone) and 100 IU mL^−1 penicillin and 100 μg mL^−1 streptomycin (Euroclone). The cells were maintained at 37 °C in a 5% CO2 humidified atmosphere.
Cellular proliferation was tested using a colorimetric assay of 3-[4,5-dimethylthiazol-2-yl]-2,5-diphenyltetrazolium bromide (MTT). We seeded 2000 cells/well in a final volume of 200 μL growth medium in 96-well plates. After 24 h the cells were stimulated with or w/o the newly synthesized compounds for 24 h, or, where indicated, for 48 h. We tested seven new synthesized compounds together with RSV reference at different concentration (1, 10, 100 μM). All compounds were dissolved in DMSO and the experimental dilutions used were made using cellular growth medium. For this reason, the cells were also incubated for 24 h with the DMSO at the same concentration used for the compounds. Incubation was terminated by adding 20 μL of MTT solution (5 mg mL^−1 in phosphate-buffered saline (PBS)) to each well, followed by incubation at 37 °C for 3 h in the dark. After, the plates were centrifuged at 2000 rpm for 15 min. The supernatant was removed, 200 μL dimethylsulfoxide (DMSO) was added to each well, and the plates were incubated for 30 min at 37 °C in the dark. Finally, the plates were read at 540 nm on a scanning multi-well spectrophotometer (Cary50MPR, Varian, Santa Clara, CA, USA).

[3] = tested on: C2C12 cells; test: H2DCFDA assay, intracellular ROS after H2O2 insult; type: cell-based, mouse; conditions: for ROS levels (H2DCFDA fluorescence): C2C12, 24 h pretreatment, 300 µM H2O2, compared to CTRL
Procedure: Indeed, the antioxidant activity of compound 6 was also evaluated using an H2DCFDA assay (Figure 6). This assay is one of the most widely used techniques for directly measuring the redox state of a cell. In order to accurately measure ROS and the cellular capability to counteract the H2O2 insult, we used cell-permeable fluorescent and chemiluminescent probes. The fluorescence intensity is proportional to the ROS levels within the cell cytosol and it is in inverse relation to the antioxidant capacity of the cells themselves. The ability to restore the basal level of fluorescence are reported in Figure 6, after 0.5 and 10 min following oxidant stimulus.
Intracellular ROS were quantified by the 2′,7′-dichlorodihydrofluorescein diacetate (H2DCF-DA Cat. No. D6883; Sigma). C2C12 cells were plated (2000 cells/well) into special optics 96-well plates (Corning-Costar, New York, NY, USA) and the cells were treated with RSV at 1 µM and Compound 6 at 1 and 10 µM for 24 h. After the incubation, cells were washed with an imaging buffer and treated with 300 µM H2O2 for an immediate fluorescence measurement. Plates were read every 50 s from 0 to 10 min for kinetic data analysis using a microplate reader (Synergy H1, BioTek), with excitation and emission wavelengths at 490 nm and 520 nm, respectively, and analyzed by Gen 5 version 2.08 (BioTek).

[4] = tested on: C2C12 cells; test: NBT assay, superoxide anion detection; type: cell-based, mouse; conditions: C2C12, 24 h incubation, 1 and 10 μM
Procedure: At first, the antioxidant effect of compound 6 was assessed by NBT assay (Figure 5). The NBT assay is based on the reduction of NBT into formazan by superoxide anion O2^-. […] The concentration of superoxide anion radical in the cells was determined by spectrophotometric method and is based on the reduction of Nitro blue tetrazolium chloride to Nitro blue-formazan in the presence of O2^-.
Since that during aging, among the ROS there are radicals as superoxide anion that can levels increase, [32] we used NBT assay in order to evaluate the antioxidant capacity of compound 6. C2C12 cells (10^6 cells) were stimulated with or w/o the compound 6 at 1 and 10 μM together with the RSV for 24 h, harvested, centrifuged for 5 min at 1200 rpm and resuspended in 1 mL 0.9% NaCl in which NBT (Nitro blue tetrazolium chloride) is dissolved 1 mg/mL. The cells were incubated for 3 h at 37 °C, centrifuged (for 10 min at 1200 rpm), resuspended in 1 mL DMSO and left 20’ in 37 °C. For the assay, the cells were plated in a 96 well plate (2 × 10^5 cell/well) and read by spectrophotometer at 550 nm on a scanning multi-well spectrophotometer (Cary50MPR, Varian, Santa Clara, CA, USA).

[5] = cited from earlier work
[6] = Log P estimated by RP-HPLC, extrapolated to 0% MeOH, SD at 95% confidence interval

SMILES	melting point [°C]	Log k ([1]; 60% MeOH)	Retention factor (k) ([1]; 60% MeOH)	Log k ([1]; 65% MeOH)	Retention factor (k) ([1]; 65% MeOH)	Log k ([1]; 70% MeOH)	Retention factor (k) ([1]; 70% MeOH)	Log k ([1]; 75% MeOH)	Retention factor (k) ([1]; 75% MeOH)	Log k ([1]; 80% MeOH)	Retention factor (k) ([1]; 80% MeOH)	chromatographic logP [1, 6]	cell vitality (MTT reduction) ([2]; C2C12, 48 h, 1 and 10 μM)	further results
Oc1ccc(/C=C/c2ccccc2)cc1Cl [Compound 2, 2-Chloro-4-[(E)-2-phenylvinyl]phenol]	126 to 127	1.0560	11.3757	0.7826	6.0620	0.5049	3.1984	0.2243	1.6761	0.0216	1.0510	4.2 ± 0.12		
Oc1ccc(/C=C/c2ccc(Cl)cc2Cl)cc1Cl [Compound 4, 2-Chloro-4-[(E)-2-(2,4-dichlorophenyl)vinyl] phenol]	135 to 136	1.7713	59.0580	1.4456	27.8973	1.1149	13.0290	0.7826	6.0620	0.5423	3.4855	> 5		Log P * ± SD [1, 6]: 5.50 ± 0.14
Oc1ccc(/C=C/c2ccc(C(F)(F)F)cc2)cc1Cl [Compound 6, 2-Chloro-4-{(E)-2-[4-(trifluoromethyl)phenyl]vinyl}phenol]	117 to 118.4	1.4227	26.4651	1.0820	12.0776	0.7645	5.8149	0.4605	2.8871	0.1498	1.4118	5.21 ± 0.06	enhanced vitality	antioxidant capacity with respect to RSV ([3]; C2C12, 10 μM, 300 µM H2O2): significantly higher antioxidant capacity; oxidant insult by H2O2 (H2DCFDA fluorescence) ([3]; C2C12, 10 μM, 24 h pretreatment, 300 µM H2O2, stable throughout time-course): strongly counteracted; ROS levels (H2DCFDA fluorescence) [3]: reduce the ROS levels; O2- levels (NBT assay) [4]: significant decrease of O2^- levels; cell vitality (MTT reduction) ([2]; C2C12, 24 h, 100 μM): drastically reduced the vitality; cell vitality (MTT reduction) ([2]; C2C12, 24 h, 1 and 10 μM): significant increase of the cell vitality; cell vitality (MTT reduction) ([2]; C2C12, 48 h, 1 μM): moderate effect; cell vitality (MTT reduction) ([2]; C2C12, 48 h, 10 μM): higher effect

Further lines, with some results ahead:

melting point [°C]	Log k ([1]; 60% MeOH)	Retention factor (k) ([1]; 60% MeOH)	Log k ([1]; 65% MeOH)	Retention factor (k) ([1]; 65% MeOH)	Log k ([1]; 70% MeOH)	Retention factor (k) ([1]; 70% MeOH)	Log k ([1]; 75% MeOH)	Retention factor (k) ([1]; 75% MeOH)	Log k ([1]; 80% MeOH)	Retention factor (k) ([1]; 80% MeOH)	chromatographic logP [1, 6]	SMILES	cell vitality (MTT reduction) ([2]; C2C12, 48 h, 1 and 10 μM)	further results
184 to 185	0.9828	9.6110	0.6845	4.8361	0.4010	2.5176	0.1330	1.3584	−0.1255	0.7490	4.29 ± 0.07	Oc1ccc(/C=C/c2ccc(Cl)cc2)cc1 [Compound 1, 4-[(E)-2-(4-Chlorophenyl)vinyl]phenol]		
119 to 120	1.4819	30.3325			0.8936	7.8267	0.6070	4.0455	0.3308	2.1420	5.11 ± 0.07	Oc1ccc(/C=C/c2ccc(Cl)cc2Cl)cc1 [Compound 3, 4-[(E)-2-(2,4-Dichlorophenyl)vinyl]phenol]		Log k ([1]; 50% MeOH): 2.1310; Retention factor (k) ([1]; 50% MeOH): 135.2173
	0.9974	9.9412	0.7161	5.2008	0.4442	2.7812	0.1536	1.4243	−0.0669	0.8573	4.22 ± 0.09	O=[N+]([O-])c1ccc(/C=C/c2ccc(O)c(Cl)c2)cc1 [Compound 5]	non-significant dose-dependent decrease of vitality	
161 to 163	1.1515	14.1757	0.8368	6.8682	0.5372	3.4447	0.2568	1.8063	−0.0429	0.9059	4.7 ± 0.05	Oc1ccc(/C=C/c2ccc(C(F)(F)F)cc2)cc1 [Compound 7, 4-{(E)-2-[4-(Trifluoromethyl)phenyl]vinyl}phenol]		
											2.47 ± 0.11	Oc1ccc(/C=C/c2cc(O)cc(O)c2)cc1 [RSV, 3,5,4′-trihydroxy-trans-stilbene, reference compound]	did not change the effects respect to the control	ROS levels (H2DCFDA fluorescence) [3]: reduce the ROS levels; bioavailability [5]: less than 1%; oral bioavailability ([5]; in vivo): almost zero; Log k ([1]; 20% MeOH): 1.6477; Retention factor (k) ([1]; 20% MeOH): 44.4282; Log k ([1]; 25% MeOH): 1.3573; Retention factor (k) ([1]; 25% MeOH): 22.7655; Log k ([1]; 30% MeOH): 1.0693; Retention factor (k) ([1]; 30% MeOH): 11.7294; Log k ([1]; 40% MeOH): 0.5493; Retention factor (k) ([1]; 40% MeOH): 3.5427; Log k ([1]; 50% MeOH): 0.0010; Retention factor (k) ([1]; 50% MeOH): 1.0024
